Source: US20170173106A1, “Polypeptide Fragments of 168A-T2 and Compositions Comprising Them for Use in Treating Cancer” (GENE SIGNAL INTERNATIONAL SA, priority 2014, published 2017)

Columns and labels:
HUVECs [1] = assay: Cellular proliferation test (MTT) on HUVECs; type: cell-based, human; conditions: 48 h
Experimental: Evaluation of cellular proliferation was performed using 4,5-diMethylThiazol-2-yl)-2,5 diphenylTetrazolium bromide (MTT) test. After 18 hrs of culture, the media was changed by EBM2 supplemented with gentamycine and 5% SVF. Different concentrations of peptides were added under a volume of 10 μL/well. Cells were incubated for 48 hrs at 37° C. MTT was added (50 μL/well) to the cells for 3 hrs.
Cells were grown for 48 h in EGM2-MV and proliferation was quantified by MTT assay.

HUVECs [2] = assay: Capillaries formation by HUVECs on Matrigel; type: cell-based, human; conditions: 6.5 μM, 13 μM and 33 μM, 18 h
Experimental: Evaluating the formation of capillaries on Matrigel® was performed by angiogenesis test in vitro described in Grant et al (1989 Cell 58, 933-943). Matrigel® was dropped down the wells of the 96 well plates and maintained for 30 min at 37° C. for the Matrigel® solidification. HUVECs cells were then seeded and 50 μL, of peptide added.
Plates were then incubated for 18 hrs at 37° C. cells were then washed with calcein solution (50 μL/well at 8 μM) and incubated for 20 min. HUVECs alive metabolize calcein in a green fluorescent component.
Peptides were added to the culture medium (EGM2-MV) at concentrations 6.5 μM, 13 μM and 33 μM after inoculation of cells. Plates were incubated at 37° C. for 18 h. Fluorescence labeling was achieved by addition of calcein. Pictures were shot with a fluorescence microscope equipped with a camera (zoom ×40).

HUVECs [3] = assay: Migration test following the wound test; type: cell-based, human; conditions: 66 μM (FIG. 3); 20 hrs
Experimental: The migration of the cells was evaluated according to the wound test (Sato and Rifkin 1988 J Cell Biol 107, 1199-1205). HUVECs were cultivated to confluence in an EGM2-MV media. The wound width was measured using the software “Analysis” (Soft Imaging System Gmbh Digital, Olympus). Peptides to be tested were then added to the media.
A wound has been performed with a chisel tip on the cell layer. The HUVECs migration following the addition of peptides was evaluated by the wound assay and the progress of the migration front of the HUVECs was analyzed after 20 hrs of culture. […] Pictures were shot with a microscope equipped with a camera (zoom ×40).

CD9P-1-CD151 complex = biological target: T1, CD9P-1-CD151 complex (Homo sapiens, UniProt P48509+Q9P2B2); assay: Immunoprecipitation in HUVECs: CD9P-1 with CD151; type: cell-based; conditions: 33 μM; 2 hrs
T1 construct: endogenous in cells; host or cells: HUVEC
T1 sequence (Q9P2B2 26-879): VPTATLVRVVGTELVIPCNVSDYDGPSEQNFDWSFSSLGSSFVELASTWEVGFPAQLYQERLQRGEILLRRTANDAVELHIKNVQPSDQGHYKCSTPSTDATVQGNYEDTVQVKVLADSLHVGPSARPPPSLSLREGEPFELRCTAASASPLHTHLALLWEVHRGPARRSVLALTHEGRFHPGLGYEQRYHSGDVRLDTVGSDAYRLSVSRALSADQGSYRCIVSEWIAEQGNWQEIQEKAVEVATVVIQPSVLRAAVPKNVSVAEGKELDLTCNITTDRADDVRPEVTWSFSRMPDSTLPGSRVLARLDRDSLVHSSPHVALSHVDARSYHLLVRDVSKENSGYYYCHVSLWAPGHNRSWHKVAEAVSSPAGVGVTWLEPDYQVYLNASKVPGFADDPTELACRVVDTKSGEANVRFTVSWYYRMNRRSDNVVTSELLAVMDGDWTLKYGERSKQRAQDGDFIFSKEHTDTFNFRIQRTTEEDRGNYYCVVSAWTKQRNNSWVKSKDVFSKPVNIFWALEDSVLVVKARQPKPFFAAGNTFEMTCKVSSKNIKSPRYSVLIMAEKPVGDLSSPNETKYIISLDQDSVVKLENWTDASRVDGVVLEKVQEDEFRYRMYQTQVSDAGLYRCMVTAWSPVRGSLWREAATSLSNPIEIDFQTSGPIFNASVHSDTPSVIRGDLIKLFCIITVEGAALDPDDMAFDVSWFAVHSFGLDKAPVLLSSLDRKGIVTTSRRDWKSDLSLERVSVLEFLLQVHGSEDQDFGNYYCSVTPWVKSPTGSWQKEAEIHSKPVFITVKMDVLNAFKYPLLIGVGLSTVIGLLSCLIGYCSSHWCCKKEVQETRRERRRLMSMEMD
T1 sequence (P48509 1-253): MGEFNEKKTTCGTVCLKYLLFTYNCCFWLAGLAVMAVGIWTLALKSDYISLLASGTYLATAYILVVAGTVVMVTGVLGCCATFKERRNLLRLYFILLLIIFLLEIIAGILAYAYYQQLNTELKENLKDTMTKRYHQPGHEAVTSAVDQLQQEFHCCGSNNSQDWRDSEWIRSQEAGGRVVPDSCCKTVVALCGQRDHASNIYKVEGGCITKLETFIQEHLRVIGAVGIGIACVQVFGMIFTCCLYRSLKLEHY
Experimental: (§1) FIG. 13 is a photograph representing the dissociation of CD9-CD9P-1, CD9P-1-CD151 and CD9-CD151 complexes by P3 in HUVECs. HUVECs incubated for 2 h with 33 μM P3, PCT or solvent in EGM2-MV medium were lysed in brij 97 buffer, then CD81, CD9 or CD151 were immunoprecipitated with the corresponding antibody. Line A: Western blot results obtained with anti-CD9P-1 antibody from immunoprecipitated CD81, CD9 and CD151. Line B: Western blot results obtained with anti-CD9 antibody from immunoprecipitated CD81, CD9 and CD151. Line C: Western blot results obtained with anti-CD151 antibody from immunoprecipitated CD81, CD9 and CD151. PCT: control peptide. IP: immunoprecipitation.
(§2) To study more precisely the effect of P3 on the associations of tetraspanins CD9, CD81, and CD151 between them and with CD9P-1, immunoprecipitation (IP) experiments were performed. In the control experiment (with the solvent), CD9P-1 co-precipitated with CD9 and CD81. A weak co-precipitation was observed between […] and CD151. The associations between tetraspanins and CD9P-1 are not modified under PCT condition. However, the interactions between CD9P-1 and CD9 and between CD9P-1 and CD151 are decreased while the HUVECs are incubated for 2 hrs with 33 μM of P3. The association between CD9P-1 and CD81 is not modified by P3 (FIG. 13A).

[4] = biological target: T2, CD9P-1 and CD81 association (Homo sapiens, UniProt P60033+Q9P2B2); assay: Immunoprecipitation in HUVECs: CD9P-1 with CD81; type: cell-based; conditions: 33 μM; 2 hrs
T2 construct: endogenous in cells; host or cells: HUVEC
T2 sequence (Q9P2B2 26-879): T1 sequence (Q9P2B2 26-879)
T2 sequence (P60033 1-236): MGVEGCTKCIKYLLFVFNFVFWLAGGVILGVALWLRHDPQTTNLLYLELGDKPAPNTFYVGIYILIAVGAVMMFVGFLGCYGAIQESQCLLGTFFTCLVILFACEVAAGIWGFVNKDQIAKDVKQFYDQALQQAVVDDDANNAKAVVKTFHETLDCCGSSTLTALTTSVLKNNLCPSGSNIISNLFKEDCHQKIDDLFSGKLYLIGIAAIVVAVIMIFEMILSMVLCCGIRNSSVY
Experimental: as §1, §2

Sequence: NQKGCYDLVT (control peptide) [PCT]
- effect on HUVECs proliferation (HUVECs [1]): No effect
- capillary tubes formation (capillaries length and junctions number) (HUVECs [2]): no effect
- wound closure / HUVECs migration (HUVECs [3]): completely closed
- interaction between CD9P-1 and CD151 (CD9P-1-CD151 complex): not modified
- association between CD9P-1 and CD81 [4]: not modified
